Tested on: yeast cells of the strain RPY10
Assay: Transformation rate of yeast cells incubated with plasmid YEP24, with and without auxiliary agent
Format: cell-based, Saccharomyces cerevisiae
Settings: 5 μl chloroquine (100 mM solution) in 1 ml 1M saccharose pH 3.3, 10 μg YEP24, 24 h at 24° C., without chloroquine 0.8
Description: A test method for the quantification of the uptake and the endocytosis transfer was made as follows. […] cells from the logarithmic growth phase of the strain RPY10 (Matα, leu2-3, ura3, his4 ade6 (4×10^7−7×10^7 cells per ml) (Piper, R. C., Whitters, E. A., Stevens, T. H. (1994) Yeast VpsS4p is a Sec 1p-like protein required for the consumption of vacuolar targeted, post-Golgi vesicles. Eur. J. Cell Biol. 65:305-318) were incubated for 24 h with 10 μg of the purified plasmid YEP24 (see: D. Bothstein et al., 1979, Gene 8:17-24), with and without auxiliary agent. The structure of the plasmid is shown in FIG. 1.
Prior to the incubation, the cells were washed with the plasmid with at least twice the same volume of H2O and taken up in 1 ml 1M saccharose (pH 3.3, high concentrations of fermentable sugar), re-suspended with the pipette tip and brought in one 10 ml each falcon tube. […] Both were incubated for 5 min at room temperature.
Then 10 μg DNA from the same DNA preparation were pipetted thereto (in 3-100 μl). The falcon tubes were firmly closed and agitated for 24 hours in a water bath or breeding room at 24° C. (the optimum transformation rate is at 24° C.-28° C). […]
After the incubation, 200-500 cells per plate on YE plates (full medium) were plated out, and the colony-forming units (CFU) were determined. […] After 5 days at 24° C., the CFU were counted and tested by means of PCR. […]

## CCN(CC)CCCC(C)Nc1ccnc2cc(Cl)ccc12 (stereo not shown) [chloroquine]
  transformation rate: 10.2 10^−8 transformants/CFU

From US20040132027A1, “Screening method for discovering auxiliary agents promoting endocytosis” (priority 2000, published 2004)
